Test results published in ChEMBL document CHEMBL1146978 (Bioorg Med Chem Lett, 2006).
pIC50: −log10 of the molar value.

Assays:
[1] = target: Voltage-dependent calcium channel alpha2delta subunit (Sus scrofa, UniProt O77773); experiment: Displacement of [3H]gabapentin from alpha-2delta calcium channel in pig brain membrane; type: cell membranes
[2] = Inhibition of [3H]leucine uptake at System L in CHO cells; type: cell-based
Rattus norvegicus = experiment: Anxiolytic effect in rat at 30 mg/kg, po by Vogel water lick conflict assay assessed by ability to reverse shock-induced suppression of drinking; type: functional
Mus musculus = experiment: Anticonvulsant activity against DBA/2 mouse at 30 mg/kg, po 2 hrs post dose; type: functional

Voltage-dependent calcium channel alpha2delta subunit, sequence (O77773 whole entry): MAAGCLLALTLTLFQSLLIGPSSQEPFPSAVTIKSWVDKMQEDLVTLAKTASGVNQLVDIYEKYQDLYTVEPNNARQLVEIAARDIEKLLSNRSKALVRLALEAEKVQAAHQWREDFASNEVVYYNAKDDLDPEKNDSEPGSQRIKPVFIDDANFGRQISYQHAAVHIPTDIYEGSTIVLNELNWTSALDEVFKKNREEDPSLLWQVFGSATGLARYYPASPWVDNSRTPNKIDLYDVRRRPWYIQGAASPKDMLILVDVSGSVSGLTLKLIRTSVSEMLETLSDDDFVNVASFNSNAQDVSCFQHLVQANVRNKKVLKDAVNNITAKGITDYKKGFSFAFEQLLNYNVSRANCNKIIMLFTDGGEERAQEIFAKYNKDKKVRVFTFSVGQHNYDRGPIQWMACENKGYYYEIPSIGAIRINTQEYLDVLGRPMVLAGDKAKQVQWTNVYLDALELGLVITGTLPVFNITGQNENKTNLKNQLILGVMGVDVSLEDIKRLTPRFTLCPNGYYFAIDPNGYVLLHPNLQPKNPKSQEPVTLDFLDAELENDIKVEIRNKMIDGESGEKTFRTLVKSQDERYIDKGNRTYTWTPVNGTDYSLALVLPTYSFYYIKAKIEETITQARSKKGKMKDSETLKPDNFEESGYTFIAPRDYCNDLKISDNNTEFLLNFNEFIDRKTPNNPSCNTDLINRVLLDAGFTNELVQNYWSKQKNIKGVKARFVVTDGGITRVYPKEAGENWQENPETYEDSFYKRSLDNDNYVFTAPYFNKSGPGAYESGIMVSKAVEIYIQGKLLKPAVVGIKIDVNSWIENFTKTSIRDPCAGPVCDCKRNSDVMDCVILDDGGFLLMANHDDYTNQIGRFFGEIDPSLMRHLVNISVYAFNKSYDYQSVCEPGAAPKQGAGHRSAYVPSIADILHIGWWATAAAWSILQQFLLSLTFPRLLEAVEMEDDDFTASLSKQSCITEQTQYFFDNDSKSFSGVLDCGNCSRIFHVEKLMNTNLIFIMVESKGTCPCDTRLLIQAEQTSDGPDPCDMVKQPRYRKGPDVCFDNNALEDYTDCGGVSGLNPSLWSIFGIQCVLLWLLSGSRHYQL

NCC(CC(=O)O)Cc1ccsc1 (stereo not given)
pIC50 [1]: 6.08
pIC50 [2]: 2.15
Activity (Rattus norvegicus): -3%
Activity (Mus musculus): 60%

NCC(CC(=O)O)CC1CCOC1 (stereo not given)
pIC50 [1]: < 2.00
Activity (Mus musculus): 0%

CC(C)C[C@H](CN)CC(=O)O [PREGABALIN]
pIC50 [2]: 3.55
Activity (Rattus norvegicus): 100%
Activity (Mus musculus): 100%

NC[C@@H](CC(=O)O)Cc1ccco1
pIC50 [1]: 5.84
pIC50 [2]: 2.00
Activity (Rattus norvegicus): 0.28%
Activity (Mus musculus): 0%

NCC(CC(=O)O)Cc1cccs1 (stereo not given)
pIC50 [1]: 5.67
pIC50 [2]: 2.53
Activity (Rattus norvegicus): 10.3%
Activity (Mus musculus): 40%

NCC(CC(=O)O)Cc1ccccc1 (stereo not given)
pIC50 [1]: < 2.00
Activity (Mus musculus): 0%

NCC(CC(=O)O)Cc1ccoc1 (stereo not given)
pIC50 [1]: 6.29
pIC50 [2]: 2.85
Activity (Rattus norvegicus): -17%
Activity (Mus musculus): 0%

NC[C@H](CC(=O)O)Cc1ccco1
pIC50 [1]: 6.75
pIC50 [2]: 2.00
Activity (Mus musculus): 40%

NCC(CC(=O)O)Cc1ccco1 (stereo not given)
pIC50 [1]: 6.38
pIC50 [2]: 2.00
Activity (Rattus norvegicus): 5.3%
Activity (Mus musculus): 20%
